Assays:
[1] = system: convulsions provoquées par le pentylénététrazole; assay: Pentylenetetrazole-induced convulsions test in mice; type: in vivo, souris; conditions: Mus musculus, ip, 0.5 h; Swiss female mice, intraperitoneal 30 minutes before 130 mg/kg pentylénététrazole intraperitoneal; read-out: DE₅₀ (doses protégeant 50% des animaux)
From the text: (§1) La nouvelle activité anticonvulsivante des composés de formule (I), a été mise en évidence en évaluant les effets des composés (I) dans le test des convulsions provoquées par électrochoc chez la souris et dans le test des convulsions provoquées par le pentylénététrazole chez la souris selon la méthode décrite par C.S. Goodman, M. Singh Grewal, W.C. Brown et E.A. Swinyard dans J. Pharmacol. Exp. Ther. 108, 168-176, (1953).
(§2) Pour ces tests on a utilisé des souris Swiss femelles d'un poids corporel de 22 à 26 g, réparties en lot de 10 animaux chacun. Une semaine avant l'expérimentation, chaque lot de 10 a été mis en cage, gardé dans une pièce à température constante (21°C ± 1°C), en cycle jour/nuit, avec nourriture et boisson à volonté. Les produits de formule (I) à tester ainsi que le pentylénététrazole ont été mis en solution dans de l'eau distillée. Le volume d'injection des produits utilisés a été de 0,4 ml pour 20 g de poids corporel. • · Convulsions provoquées par le pentylénététrazole. Les composés de formule (I) ont été administrés par voie intrapéritonéale 30 minutes avant l'administration par voie intrapéritonéale de 130 mg/kg de pentylénététrazole (dose nécessaire pour que 80% des souris contrôlées présentent une crise convulsive). […]

[2] = system: convulsions provoquées par électrochoc; assay: Electroshock-induced convulsions test in mice; type: in vivo, souris; conditions: Mus musculus, ip, 0.5 h; Swiss female mice, intraperitoneal 30 minutes before the shock (12 volts, 0,4 secondes, corneal electrodes); read-out: DE₅₀ (doses protégeant 50% des animaux)
From the text: as §1, §2

SMILES: NC1CCN(c2cccc(Cl)n2)CC1 [4-amino-1-(6-chloro-2-pyridyl)pipéridine]
- ED50 [1]: < 10 mg/kg
- ED50 [2]: < 3 mg/kg
